# Assays:
# Z. bailii = assay: Antimicrobial efficacy of emulsions, growth measured by optical density at 600 nm; format: cell-based, Zygosaccharomyces bailii; conditions: time course; 45.5 ppm thyme oil and 13 ppm LAE emulsion, or 13 ppm lauric arginate alone; FIG. 4
# Protocol: Antimicrobial efficacy of emulsions of the invention is assessed by back diluting a mid-log phase, overnight culture of Z. bailii 1:100 into fresh acidified (pH 5) yeast peptone dextrose broth and adding the appropriate concentration of emulsion. Emulsions are prepared and tested in duplicate. Controls of lauric arginate are prepared in the same buffer with corn oil substituted for essential oil, at the same concentration. To test thyme oil alone, ethanol is used as a vehicle to solubilize the thyme oil in the microbiological media.
# The antimicrobial efficacy of the formulations was evaluated against the relevant spoilage organism Z. bailii after 72 hours of incubation, as measured by optical density at 600 nm. See FIG. 3 which compares the growth of Z. bailii under differing conditions. Z. bailii was treated to emulsions comprising 52.5 ppm Thyme oil and 15 ppm lauric arginate (LAE); 52.5 ppm Thyme essential oil alone; or 15 ppm lauric arginate alone. […]
# Additional studies were conducted in order to ascertain the temporal component of lauric arginate activity. […] Cells are treated to 45.5 ppm Thyme oil and 13 ppm lauric arginate (LAE) emulsion; 45.5 ppm Thyme essential oil alone; or 13 ppm lauric arginate alone, and the OD600 of the cultures were measured over time. […]
# [1] = prior art; cited from earlier work
smiles,measurement,setting,value
"CCCCCCCCCCCC(=O)N[C@@H](CCCN=C(N)N)C(=O)OCC [lauric arginate, Lauric arginate]",growth inhibition over time (OD600),Z. bailii,not inhibitory
Cc1ccc(C(C)C)cc1O [carvacrol],level at which synergy with lauric arginate was reported,[1],60 ppm
Cc1ccc(C(C)C)c(O)c1 [thymol],synergy with lauric arginate,[1],not to possess synergy

# — patent US12016340B2, “Synergistic antimicrobial formulation consisting of plant extract and lauric arginate” (KALAMAZOO HOLDINGS, INC., priority 2019, dated 2024)
